In patent US10603335B2, “Cancer treatment combination compositions, methods and uses” (Board of Supervisors of Louisiana State University and …, priority 2016, dated 2020):

Legend:
PATX141 tissue slices = test: Live Tissue Sensitivity Assay (LTSA), PATX141; type: cell-based; conditions: 72 hours
Experimental: (§1) Animal experiment protocol was reviewed and approved by The University of Texas MD Anderson Cancer Center (Houston, Tex.) institutional review board and in accordance with the Guidelines for the Care and Use of Laboratory Animals published by the National Institutes of Health. PDXs were grown from cryopreserved early passages of PDXs in nude mice as described in previous publications (Kim M P, et al, Nat Protoc 2009; 4(11): 1670-80). Briefly, tumor samples stored in CryoStor™ CS10 storage medium were recovered and cut into about 2 mm3 fragments, soaked in Matrigel, and implanted into the subcutaneous space of Balb/c nude mice (5 mice/PDX). Tumors were harvested when they reach 1.5 cm in diameter for generating tissue slices for drug testing with quadruplicates.
(§2) About 100 tissue slices were produced from 1 tumorgraft with tissue slicer and arrayed in 96-well plates with previously established method (Roife D, et al, Clin Cancer Res 2016). […] Same volume of medium with 0.1% DMSO was added into control wells. After 72 hours, tissue viabilities were measured with PrestoBlue method. Viability inhibition will be calculated through normalization of viabilities of tissue slices treated with inhibitor against the viability of control (DMSO treated) slices. Inhibition of viability was further analyzed with t-test. […]

Panc-1 cells spheroids = test: 3D spheroid growth (IncuCyte ZOOM), Panc-1; type: cell-based
Experimental: (§3) A protocol that enables the growth of identical size single cancer cell spheroids in Matrigel in 96 well plates has been developed.
(§4) Panc-1 and Mia-Paca-2 cells were grown in 10% FBS DMEM. Cells were collected after trypsinization and resuspended in phenol-red free DMEM with 10% FBS. Cells were labeled with CellTracker Red (Life Techmologies) for 5 minutes. After labeling cells were washed with PBS and transfer into 96-well Corning 7007 ULA round bottom plates at 1,000 cells/well in 100 μl phenol-red free media with 10% FBS and 5% Matrigel. […] Spheroids were grown at 37° C. and 5% CO2 in IncuCyte ZOOM (Essen Bioscience). Images were acquired every 4 h for a period of 120 h post-treatment and software analysis was design to identify the red object in the well. The data were expressed as fold increase in spheroids size at the end of the treatment using the “average red object area in the well” as determined by the IncuCyte software analysis. Reproducibility was confirmed in three independent experiments. Spheroids grew at a uniform rate (FIG. 1).

AsPC-1 spheroids = test: 3D spheroid growth (IncuCyte ZOOM), AsPC-1; type: cell-based; conditions: gemcitabine 0.5, 1.0, 5.0 μM, LHRH-curcumin 10, 20 μM, 5 days
Experimental: as §4
Panc-1, Mia-Paca-2 and AsPC-1 spheroids were formed in 96-well round bottom plates as described. […] Media alone was used as control. The spheroids were grown for 5 days before quantification. Both gemcitabine and LHRH-curcumin were diluted in water.

PATX148 tissue slices = test: Live Tissue Sensitivity Assay (LTSA), PATX148; type: cell-based; conditions: 72 hours
Experimental: as §1, §2

PATX113 tissue slices = test: Live Tissue Sensitivity Assay (LTSA), PATX113; type: cell-based; conditions: 72 hours
Experimental: as §1, §2

[1] = test system: cleaved PARP, XIAP and cIAP2 in AsPC-1 cells; test: Western blot of apoptosis markers and inhibitors of apoptosis, AsPC-1; type: cell-based; conditions: for XIAP and c-IAP2 protein levels: 24 h; for apoptosis marker cleaved PARP: 24 h post-treatment, LHRH-curcumin 10-100 uM, gemcitabine 1-20 uM
Experimental: (§5) Pancreatic cells were collected after trypsinization and seeded in 12-well plates for 24 h before treatments. Treatments were performed as described in the Figure legends. Following treatment, whole cell lysates were collected in Laemmli buffer and analyzed by Western blot. The following primary antibodies were used: XIAP, c-IAP2, cleaved PARP, Caspase-3 (all from Cell Signaling), actin (Santa Cruz) and LHRHR (Abcam).
(§6) Western blot analysis. Actin, GAPDH and Ponceau staining were used as loading controls. Gemcitabine was diluted in water. Curcumin and LHRH-curcumin were diluted in DMSO. Cells were treated as follows:
Western blot analysis. Actin, GAPDH and Ponceau staining were used as loading controls. Gemcitabine was diluted in water. Curcumin and LHRH-curcumin were diluted in DMSO.

PATX112 tissue slices = test: Live Tissue Sensitivity Assay (LTSA), PATX112; type: cell-based; conditions: 72 hours
Experimental: as §1, §2

[2] = test system: TGFβ pathway genes in PATC53 pancreatic cancer cells; test: Quantitative PCR of TGFβ pathway genes, PATC53; type: cell-based; conditions: TGFβ 100 ng/ml, LHRH-curcumin 20 μM and 50 μM
Experimental: GAPDH was used as a reference.
mRNA levels of Smad3, SNAI1, SNAI2, TGFBRI, TGFBRII, GADD45 and XIAP were determined by quantitative real-time PCR using the Roche Universal Library Probe protocol. Thermal cycling was carried out using the LightCycler96 system from Roche under the following conditions: 95° C. for 10 min and 40 cycles at 95° C. for 15 s and 55° C. for 60 s. mRNA expression for any given gene is represented as comparative to the control-treated cells. GAPDH was used as the housekeeping gene of reference.

PATX213 tissue slices = test: Live Tissue Sensitivity Assay (LTSA), PATX213; type: cell-based; conditions: single agent, 72 hours
Experimental: as §1, §2

[3] = test system: LHRHR knock-down (KD) Panc-1 spheroides; test: 3D spheroid growth, LHRHR knock-down (KD) Panc-1; type: cell-based; conditions: LHRHR KD Panc-1; 30 μM
Mia-PaCa-2 spheroids = test: 3D spheroid growth (IncuCyte ZOOM), Mia-PaCa-2; type: cell-based, human; conditions: for size of the spheroids: MiaPaca-2, gemcitabine 0.5, 1.0, 5.0 μM, LHRH-curcumin 10, 20 μM, 5 days
Experimental: as §3, §4

[4] = test system: cleaved PARP, XIAP and cIAP2 in Panc-1 cells; test: Western blot of apoptosis markers and inhibitors of apoptosis, Panc-1; type: cell-based; conditions: for apoptosis marker cleaved PARP: 24 h post-treatment, LHRH-curcumin 10-100 uM, gemcitabine 1-20 uM
Experimental: as §5, §6
Western blot analysis. Actin, GAPDH and Ponceau staining were used as loading controls. Gemcitabine was diluted in water. Curcumin and LHRH-curcumin were diluted in DMSO. The cells were treated as follows:
Western blot analysis. Actin was used as loading control. Both gemcitabine and LHRH-curcumin were diluted in water.

PATX110 tissue slices = test: Live Tissue Sensitivity Assay (LTSA), PATX110; type: cell-based; conditions: 72 hours
Experimental: as §1, §2

PATX50 tissue slices = test: Live Tissue Sensitivity Assay (LTSA), PATX50; type: cell-based; conditions: 72 hours
Experimental: as §1, §2

PATX118 tissue slices = test: Live Tissue Sensitivity Assay (LTSA), PATX118; type: cell-based; conditions: 72 hours
Experimental: as §1, §2

PATX55 tissue slices = test: Live Tissue Sensitivity Assay (LTSA), PATX55; type: cell-based; conditions: 72 hours
Experimental: as §1, §2

PDAC PDXs tissue slices = test: Live Tissue Sensitivity Assay (LTSA), panel of PDAC PDXs; type: cell-based; conditions: 16 PDAC PDXs tested; single agent
Experimental: as §1, §2

PATX193 tissue slices = test: Live Tissue Sensitivity Assay (LTSA), PATX193; type: cell-based; conditions: 72 hours
Experimental: as §1, §2

[5] = gemcitabine 0.5, 1.0, 5.0 μM, LHRH-curcumin 10, 20 μM, 5 days
[6] = curcumin, LHRH-curcumin 50 uM and 100 uM alone, gemcitabine alone
[7] = 24 h, curcumin, LHRH-curcumin 50 uM and 100 uM alone, gemcitabine alone

With `COc1cc(/C=C/C(=O)CC(=O)/C=C/c2ccc(OC(=O)CCCC(=O)NCCCC[C@@H](NC(=O)[C@H](Cc3ccc(O)cc3)NC(=O)[C@H](CO)NC(=O)[C@H](Cc3c[nH]c4ccccc34)NC(=O)[C@H](Cc3c[nH]cn3)NC(=O)[C@@H]3CCC(=O)N3)C(=O)N[C@@H](CC(C)C)C(=O)N[C@@H](CCCNC(=N)N)C(=O)N3CCC[C@H]3C(=O)NCC(N)=O)c(OC)c2)ccc1O` [LHRH-curcumin, [DLys6]-LHRH-Curcumin] the “Sensitivity To LHRH-C” value (PATX141 tissue slices; single agent) was “Resistant”, the “effectiveness on spheroids growth versus curcumin” value (Panc-1 cells spheroids; 3D culture, 10, 20 and 30 μM, 120 h) was “more effective than curcumin” and the “size of the spheroids” value (Panc-1 cells spheroids; 10, 20 and 30 μM, 120 h post-treatment) was “significantly decreased the size of the spheroids formed by Panc-1 cells in a dose-dependent manner”. The spheroids growth (Panc-1 cells spheroids; LHRH 30 μM, LHRH-curcumin 30 μM) was “superior to that of LHRH”, the “size of the spheroids” value (Panc-1 cells spheroids; [5]) was “decrease the size of the spheroids” and the “size of the spheroids” value (AsPC-1 spheroids) was “decrease the size of the spheroids”. The “Sensitivity To LHRH-C” value (PATX148 tissue slices; single agent) was “Resistant”, the “Sensitivity To LHRH-C” value (PATX113 tissue slices; single agent) was “Sensitive (The tissue was defined as sensitive to the treatment if both p<0.05 and at least 30% of tissue slice viability on average was inhibited)” and the “XIAP and c-IAP2 protein levels” value ([1]; 50 uM in the presence of gemcitabine (5 uM)) was “down-regulated”. The “XIAP and c-IAP2 protein levels” value [1, 6] was “down-regulated”, the “apoptosis marker cleaved PARP” value ([1]; curcumin) was “initiate apoptosis as illustrated by the presence of cleaved PARP” and the “Sensitivity To LHRH-C” value (PATX112 tissue slices; single agent) was “Sensitive (The tissue was defined as sensitive to the treatment if both p<0.05 and at least 30% of tissue slice viability on average was inhibited)”. For the same compound, the “mRNA levels of GADD45 and XIAP” value [2] was “affected”, the “mRNA levels of TGFβ signaling genes (SMAD3, SNAI1, SNAI2, TGFBRI, TGFBRII)” value ([2]; 24 h and 48 h) was “down-regulated” and the “Sensitivity To LHRH-C” value (PATX213 tissue slices) was “Sensitive (The tissue was defined as sensitive to the treatment if both p<0.05 and at least 30% of tissue slice viability on average was inhibited)”. The spheroids growth [3] was “still has an effect on spheroids growth formed by LHRHR KD cells, its effect was inferior to that of curcumin alone”, the “efficiency on spheroids growth, Panc-1 versus Mia-PaCa-2” value (Mia-PaCa-2 spheroids; 10, 20 and 30 μM, 120 h) was “more efficient on Panc-1 cells than Mia-PaCa-2 cells” and the “size of the spheroids” value (Mia-PaCa-2 spheroids) was “decrease the size of the spheroids”. For the same compound, the “XIAP and c-IAP2 protein levels” value ([4]; 24 h, 50 uM in the presence of gemcitabine (5 uM)) was “down-regulated”, the “XIAP and c-IAP2 protein levels” value [4, 7] was “down-regulated” and the “apoptosis marker cleaved PARP” value ([4]; curcumin) was “initiate apoptosis as illustrated by the presence of cleaved PARP”. The “XIAP and c-IAP2 protein levels” value ([4]; 72 h, LHRH-curcumin 10 uM and 20 uM in the presence of gemcitabine (5 uM and 10 uM)) was “down-regulated”, the “Sensitivity To LHRH-C” value (PATX110 tissue slices; single agent) was “Sensitive (The tissue was defined as sensitive to the treatment if both p<0.05 and at least 30% of tissue slice viability on average was inhibited)” and the “Sensitivity To LHRH-C” value (PATX50 tissue slices; single agent) was “Resistant”. For the same compound, the “Sensitivity To LHRH-C” value (PATX118 tissue slices; single agent) was “Resistant”, the “Sensitivity To LHRH-C” value (PATX55 tissue slices; single agent) was “Sensitive (The tissue was defined as sensitive to the treatment if both p<0.05 and at least 30% of tissue slice viability on average was inhibited)” and the “number of PDXs sensitive” value (PDAC PDXs tissue slices) was 8. For the same compound, the “Sensitivity To LHRH-C” value (PATX193 tissue slices; single agent) was “Sensitive (The tissue was defined as sensitive to the treatment if both p<0.05 and at least 30% of tissue slice viability on average was inhibited)”.

With `Nc1ccn([C@@H]2O[C@H](CO)[C@@H](O)C2(F)F)c(=O)n1` [gemcitabine, 2′,2′-difluoro 2′deoxycytidine, reference compound] the tissue slice viability (PATX141 tissue slices; Gem 10 μM) was 105.35, the “size of the spheroids” value (Panc-1 cells spheroids; [5]) was “decrease the size of the spheroids” and the “size of the spheroids” value (AsPC-1 spheroids) was “decrease the size of the spheroids”. For the same compound, the tissue slice viability (PATX148 tissue slices; Gem 10 μM) was 99.55, the tissue slice viability (PATX113 tissue slices; Gem 10 μM) was 82.19 and the “XIAP and c-IAP2 protein levels” value [1, 6] was “doesn't affect XIAP and c-IAP2 levels”. For the same compound, the “apoptosis marker cleaved PARP” value ([1]; curcumin) was “Low levels of cleaved PARP was detected”, the tissue slice viability (PATX112 tissue slices; Gem 10 μM) was 91.71 and the “size of the spheroids” value (Mia-PaCa-2 spheroids) was “decrease the size of the spheroids”. The “XIAP and c-IAP2 protein levels” value [4, 7] was “doesn't affect XIAP and c-IAP2 levels”, the “apoptosis marker cleaved PARP” value ([4]; curcumin) was “no cleaved PARP was detected” and the tissue slice viability (PATX110 tissue slices; Gem 10 μM) was 100.20. For the same compound, the tissue slice viability (PATX50 tissue slices; Gem 10 μM) was 104.96, the tissue slice viability (PATX118 tissue slices; Gem 10 μM) was 97.56 and the tissue slice viability (PATX55 tissue slices; Gem 10 μM) was 95.45. For the same compound, the tissue slice viability (PATX193 tissue slices; Gem 10 μM) was 92.70.
